This note sets out measurements from ChEMBL document CHEMBL4888484, “Replenishing the malaria drug discovery pipeline: Screening and hit evaluation of the MMV Hit Generation Library 1 (HGL1) against asexual blood stage Plasmodium falciparum ,using a nano luciferase reporter read-out” (2022).

Broadly, the IC50 is the concentration at which inhibition is half-maximal. A low value points to greater potency in that assay.

Data set [1] relates to Plasmodium falciparum. Put plainly: Hit confirmation in dose-response curve in NF54 nanoGlo assay, at 72h. More on the design: timepoint 72 hour. The data set is classed as functional, organism-based, Erythrocyte.
Data set [2] is described as follows: Re-testing in dose-response curve in HepG2 cytotoxicity assay, at 72h. More on the design: timepoint 72 hour. Particulars: human, HepG2 cells. The data set is classed as toxicity, cell-based.
The test system of data set [3] is Plasmodium falciparum. Kind of data set: Hit confirmation in dose-response curve in Dd2 pLDH assay, at 72h. Format: functional, organism-based. More on the design: timepoint 72 hour. As to conditions: Dd2, Erythrocyte.
Data set [4] can be described thus: Hit confirmation in dose-response curve in HepG2 cytotoxicity assay, at 72h. The data set is classed as toxicity, cell-based. More on the design: timepoint 72 hour. As to conditions: human, HepG2 cells.
Data set [5] has as its system Plasmodium falciparum. Kind of data set: Re-testing in dose-response curve in 3D7 pLDH assay, at 72h. Format: functional, organism-based. More on the design: timepoint 72 hour. As to conditions: 3D7, Erythrocyte.
The test system of data set [6] is Plasmodium falciparum. Kind of data set: Hit confirmation in dose-response curve in NF54 pLDH assay, at 72h. Format: functional, organism-based. Particulars: NF54, Erythrocyte. More on the design: timepoint 72 hour.
Data set [7] has as its system Plasmodium falciparum. Put plainly: Hit confirmation in dose-response curve in NF54 nanoGlo assay, at 12h. The data set is classed as functional, organism-based, Erythrocyte. More on the design: timepoint 12 hour.
The mark [8] stands for this setting: Plasmodium falciparum, NF54, Erythrocyte, 72 h.
Setting [9] is: Plasmodium falciparum, NF54, Erythrocyte, 12 h.

For `CC(C)c1ccc(-c2nc(CN3CCCCC3)cc(CN3CCCCC3)c2O)cc1`, the IC50 with Plasmodium falciparum [1] (erythrocyte) is 0.813 µM; in the data set with Plasmodium falciparum [3] it was 1.23 µM; with Plasmodium falciparum [5] it was 1.13 µM; in the data set with Plasmodium falciparum [6], 2.4 µM; in the data set with Plasmodium falciparum [7] (erythrocyte), 1.17 µM. Besides, the values for the IC50 at 72 h in data set [2] and in data set [4] were above 25 µM and above 10 µM, respectively.
On to `CCN1CCN(c2cccc(NC(=O)c3cc(F)cc4c(=O)c5cc(F)ccc5[nH]c34)c2)CC1`, for which the IC50 amounted to 0.912 µM with Plasmodium falciparum [1] (setting [8]); 1.17 µM in the data set with Plasmodium falciparum [3]; 0.609 µM in the data set with Plasmodium falciparum [5]; 1.38 µM in the data set on Plasmodium falciparum [6]; 1.32 µM in the data set with Plasmodium falciparum [7] (setting [9]). The concentration for half-maximal inhibition (IC50) at 72 h in data set [2] is 3.48 µM; in data set [4], above 10 µM.
As for `Cc1cccc(CN(Cc2cccc(C)n2)C[C@H]2CCCCO2)n1`, the IC50 in the data set with Plasmodium falciparum [1] (setting [8]) stood at 0.229 µM; in the data set with Plasmodium falciparum [3] it was 0.275 µM; with Plasmodium falciparum [5], 1.32 µM; with Plasmodium falciparum [6], 0.676 µM; in the data set with Plasmodium falciparum [7] (setting [9]) it was 2.34 µM. Besides, the IC50 at 72 h was above 25 µM in data set [2] and above 10 µM in data set [4].
In the case of `O=C(Nc1cnc2ccccc2c1)c1ccccc1C(=O)c1ccc(F)cc1`, the 50% inhibitory concentration (IC50) in the data set on Plasmodium falciparum [1] (setting [8]) came out at 0.49 µM; in the data set on Plasmodium falciparum [3] it was 0.955 µM; with Plasmodium falciparum [5], 1.39 µM; with Plasmodium falciparum [6], 2.57 µM; in the data set with Plasmodium falciparum [7] (setting [9]), 0.631 µM. For the same molecule, the results for the half-inhibitory concentration (IC50) at 72 h in data set [2] and in data set [4] were above 25 µM and above 10 µM, respectively.
For the molecule `COc1ccc(F)cc1S(=O)(=O)N1CCc2noc(N)c2C1`, the IC50 in the data set on Plasmodium falciparum [1] (setting [8]) was 0.158 µM; in the data set on Plasmodium falciparum [3], 0.955 µM; in the data set with Plasmodium falciparum [5], above 25 µM; in the data set with Plasmodium falciparum [6], 0.912 µM; in the data set with Plasmodium falciparum [7] (setting [9]), above 10 µM. The IC50 at 72 h is above 25 µM in data set [2] and above 10 µM in data set [4].
In the case of `CCc1nc2c(C(=O)N3CCOc4c(C)cc(C)cc43)ccnc2[nH]1`, the IC50 is 1.41 µM in the data set on Plasmodium falciparum [1] (setting [8]); 1.29 µM in the data set on Plasmodium falciparum [3]; 0.234 µM in the data set with Plasmodium falciparum [5]; 4.27 µM in the data set with Plasmodium falciparum [6]; above 10 µM in the data set on Plasmodium falciparum [7] (setting [9]). Moreover, the figures for the IC50 at 72 h in data set [2] and in data set [4] were above 25 µM and above 10 µM, respectively.
`O=S(=O)(Nc1ccc(O)c2cccnc12)N1CCCC1`: the concentration for half-maximal inhibition (IC50) amounted to 2.69 µM in the data set with Plasmodium falciparum [1] (setting [8]); 1.45 µM in the data set with Plasmodium falciparum [3]; 10.5 µM with Plasmodium falciparum [5]; 1.32 µM with Plasmodium falciparum [6]; 10 µM with Plasmodium falciparum [7] (setting [9]). In addition, the IC50 at 72 h is 12.5 µM in data set [2] and above 10 µM in data set [4].
With `O=C(Nc1cc(N2CCCS2(=O)=O)ccc1O)c1cccc(Oc2cccc(C(F)(F)F)c2)c1`, the IC50 in the data set on Plasmodium falciparum [1] (setting [8]) stood at 0.355 µM; with Plasmodium falciparum [3], 0.537 µM; with Plasmodium falciparum [5], 0.416 µM; in the data set with Plasmodium falciparum [6] it was 1.1 µM; in the data set on Plasmodium falciparum [7] (setting [9]) it was 0.501 µM. The IC50 at 72 h was 20.8 µM in data set [2] and above 10 µM in data set [4].
As to `CC(C)c1ccc2ncnc(N[C@H]3CCc4[nH]cnc4C3)c2c1`, the IC50 worked out at 0.589 µM with Plasmodium falciparum [1] (setting [8]); 0.589 µM in the data set on Plasmodium falciparum [3]; 0.534 µM in the data set on Plasmodium falciparum [5]; 1 µM in the data set with Plasmodium falciparum [6]; 2.4 µM in the data set on Plasmodium falciparum [7] (setting [9]). Further, the IC50 at 72 h in data set [2] is above 25 µM; in data set [4] it was above 10 µM.
Consider `CN1CCCN(c2ccc(NC(=O)c3nn(-c4ccccc4)c(=O)c4ccccc34)cc2F)CC1`, for which the IC50 came out at 1.38 µM in the data set with Plasmodium falciparum [1] (setting [8]); 1.91 µM in the data set on Plasmodium falciparum [3]; 1.15 µM in the data set on Plasmodium falciparum [5]; 2.1 µM with Plasmodium falciparum [6]; 2.51 µM in the data set on Plasmodium falciparum [7] (setting [9]). Further, the IC50 at 72 h is 7.35 µM in data set [2] and above 10 µM in data set [4].
Consider `Cc1ccc(O)c(CNCC2(c3ccccc3Cl)CCOCC2)n1`, for which the IC50 with Plasmodium falciparum [1] (setting [8]) was found to be 0.209 µM; in the data set with Plasmodium falciparum [3], 0.437 µM; in the data set with Plasmodium falciparum [5], 0.444 µM; in the data set on Plasmodium falciparum [6], 0.575 µM; in the data set with Plasmodium falciparum [7] (setting [9]), 0.316 µM. For the same molecule, the IC50 at 72 h in data set [2] was above 25 µM; in data set [4] it was above 10 µM.
With `O=S(=O)(NC12CCCC1CNC2)c1onc(C2CC2)c1Cl` (centres undefined), the IC50 turned out to be 0.891 µM in the data set on Plasmodium falciparum [1] (setting [8]); 1.15 µM in the data set on Plasmodium falciparum [3]; 10.5 µM in the data set with Plasmodium falciparum [5]; 1.48 µM in the data set with Plasmodium falciparum [6]; 1.62 µM in the data set with Plasmodium falciparum [7] (setting [9]). For the same molecule, the IC50 at 72 h in data set [2] was above 25 µM; in data set [4], above 10 µM.
